{"source": "patent US20080160594A1", "about": "“Methods of Light Activated Release of Ligands from Endosomes” (INVITROGEN CORPORATION, priority 2001, published 2008)", "origin": "cited, not measured here", "conditions": "Vlassov et al., 1994"}
{"smiles": "CCCCCCCC/C=C\\CCCCCCCCOCC(C[N+](C)(C)C)OCCCCCCCC/C=C\\CCCCCCCC.[Cl-]", "note": "(stereo not shown) [DOTMA, N-(1-(2,3-dioleyloxy)propyl)-N,N,N-trimethylammonium chloride]", "values": [{"measurement": "increase of the antisense effect of a phosphorothioate oligonucleotide", "value": 1000, "unit": "fold"}]}
